Laboratory results published in publication PMC6801405, “Discovery of 3-Arylquinoxaline Derivatives as Potential Anti-Dengue Virus Agents” (International Journal of Molecular Sciences, 2019).
Like-named read-outs stand apart in the source and are kept apart here.

Columns and labels:
DENV2 = test: microbe, parasite or virus in culture; assay type: cell-based, dengue virus; settings: for SI (selectivity index, CC50/EC50): CC50 Huh-7 / EC50 DENV; for inhibition at 1 µM / inhibition at 10 µM / EC50: Dengue virus; for inhibition at 1 µM / inhibition at 10 µM: DENV2, 72 h; for inhibition at 1 µM / inhibition at 10 µM / DENV2 % Inhibition at 10 μM: Huh-7-DV-Fluc cells, three days; for inhibition at 10 µM / anti-DENV activity in words / DENV2 % Inhibition at 10 μM: 10 μM; for anti-DENV activity in words: >32% inhibition of DENV-2 at 10 μM considered as active
Experimental: Anti-DENV activities were determined by firefly luciferase activity.
Huh-7-DV-Fluc cells were seeded in 24-well plates at a density of 2 × 10^4 cells per well, and treated with the 3-arylquinoxaline compounds at two concentrations (1 and 10 μM) or 0.1% DMSO as control. After three days of incubation, the luciferase activity assay was performed using the Bright-Glo Luciferase assay system (Promega, Madison, WI, USA) according to the manufacturer’s instructions.

[1] = Cytotoxicity assay (XTT method); assay type: cell-based, Human; settings: human, mean ± SD; for viability at 72 h, 20 µM / viability at 72 h, 200 µM: Huh-7 cells, XTT; for viability at 72 h, 20 µM: read-out: Huh-7 Cell % viability at 20 μM; for viability at 72 h, 200 µM: read-out: Huh-7 Cell % viability at 200 μM; for CC50 at 72 h: uninfected Huh-7 cells, read-out: CC50 (concentration causing a 50% growth inhibition of uninfected Huh-7 cells)
Experimental: For cytotoxicity tests, run in parallel with antiviral assays, plates at an initial density of 5 × 10^3 cells/well were treated with or without serial dilutions of test compounds. Cell viability was determined after 72 h at 37 °C in a humidified CO2 (5%) atmosphere by the (2,3-bis[2-methyloxy-4-nitro-5-sulfophenyl]-2H-tetrazolium-5-carboxanilide) (XTT) method.

[2] = DENV2, DENV replication, mean ± SD, read-out: EC50 (concentration resulting in a 50% inhibition in virus production)

Row | Compound | melting point [°C] | SI (selectivity index, CC50/EC50) (DENV2) | inhibition at 1 µM (DENV2; mean ± SD) [%] | inhibition at 10 µM (DENV2; mean ± SD) [%] | EC50 (DENV2; [2]) [µM] | viability at 72 h, 20 µM [1] [%] | viability at 72 h, 200 µM [1] [%] | CC50 at 72 h [1] [µM] | anti-DENV activity in words (DENV2) | DENV2 % Inhibition at 10 μM (DENV2; mean ± SD) [%] | EC50 (DENV2; DENV2, read-out: EC50 (concentration resulting in a 50% inhibition in virus production)) [µM]
1 | Oc1ccc(Cc2nc3ccccc3nc2-c2ccc(O)cc2)cc1 | 184.8 to 185.9 |  |  |  |  |  |  |  |  |  | 
2 | COc1ccc(-c2cc3ccccc3nc2C(O)c2ccccc2)cc1 (stereo not shown) [Compound 3, 2-(hydroxyphenylmethyl)-3-(4-methoxyphenyl)quinoline, reference compound] |  | 11.07 | 12.4 ± 2.67 | 50.1 ± 3.47 | 12.6 ± 2.16 | 90.3 ± 2.62 | 21.9 ± 3.55 | 139 ± 2.32 |  |  | 
3 | O=C(c1ccc(O)cc1)c1nc2ccccc2cc1-c1ccc(O)cc1 [Compound 4, 2-(4-hydroxybenzoyl)-3-(4-hydroxyphenyl)quinoline, reference compound] |  | 12.44 | 11.2 ± 2.31 | 41.2 ± 2.88 | 13.2 ± 1.23 | 96.6 ± 8.78 | 41.4 ± 5.71 | 164 ± 2.32 |  |  | 
4 | OC(c1ccccc1)c1nc2ccccc2nc1-c1ccccc1 (stereo not shown) [Compound 15a, Phenyl(3-phenylquinoxalin-2-yl)methanol] | 146 to 147 |  | 2.13 ± 1.12 | 5.31 ± 1.73 |  | 105 ± 5.66 | 59.9 ± 8.33 |  | inactive |  | 
5 | COc1ccc(C(O)c2nc3ccccc3nc2-c2ccccc2)cc1 (stereo not shown) [Compound 15b, (4-Methoxyphenyl)(3-phenylquinoxalin-2-yl)methanol] | 166 to 168.6 |  | 24.3 ± 2.51 | 48 |  | 103 ± 1.79 | 61.4 ± 2.67 |  | moderately active | 48.67 ± 4.71 | 
6 | OC(c1ccccc1)c1nc2cc(Cl)c(Cl)cc2nc1-c1ccccc1 (stereo not shown) [Compound 16a, (6,7-Dichloro-3-phenylquinoxalin-2-yl)(phenyl)methanol] | 136.4 to 136.9 |  | 1.97 ± 0.72 | 6.42 ± 2.97 |  | 108 ± 8.91 | 20.6 ± 5.37 |  |  |  | 
7 | COc1ccc(C(O)c2nc3cc(Cl)c(Cl)cc3nc2-c2ccccc2)cc1 (stereo not shown) [Compound 16b, (6,7-Dichloro-3-phenylquinoxalin-2-yl)(4-methoxyphenyl)methanol] | 157.2 to 157.6 |  | 2.41 ± 1.48 | 9 |  | 104 ± 4.18 | 73 ± 9.05 |  | inactive | 9.46 ± 2.88 | 
8 | OC(c1ccccc1)c1nc2ccccc2nc1-c1ccc(F)cc1 (stereo not shown) [Compound 17a, [3-(4-Fluorophenyl)quinoxalin-2-yl](phenyl)methanol] | 157.4 to 158 |  | 2.58 ± 0.85 | 4.78 ± 1.93 |  | 96.3 ± 3.52 | 73.3 ± 6.57 |  |  |  | 
9 | COc1ccc(C(O)c2nc3ccccc3nc2-c2ccc(F)cc2)cc1 (stereo not shown) [Compound 17b, [3-(4-Fluorophenyl)quinoxalin-2-yl](4-methoxyphenyl)methanol] | 173 to 174.7 |  | 19.2 ± 3.5 | 22 |  | 102 ± 1.98 | 101 ± 1.27 |  |  | 22.89 ± 4.54 | 
10 | OC(c1ccccc1)c1nc2cc(Cl)c(Cl)cc2nc1-c1ccc(F)cc1 (stereo not shown) [Compound 18a, [6,7-Dichloro-3-(4-fluorophenyl)quinoxalin-2-yl](phenyl)methanol] | 150 to 150.2 |  | 3.41 ± 1.11 | 6.74 ± 1.57 |  | 102 ± 3.96 | 21.5 ± 1.6 |  |  |  | 
11 | COc1ccc(-c2nc3ccccc3nc2C(O)c2ccc(OC)cc2)cc1 (stereo not shown) [Compound 19b, (4-Methoxyphenyl)[3-(4-methoxyphenyl)quinoxalin-2-yl]methanol] | 132.4 to 136 |  | 35.5 ± 4.82 | 47.7 ± 5.41 |  | 96.4 ± 1.24 | 21.3 ± 1.55 |  |  |  | 
12 | COc1ccc(-c2nc3cc(Cl)c(Cl)cc3nc2C(O)c2ccccc2)cc1 (stereo not shown) [Compound 20a, [6,7-Dichloro-3-(4-methoxyphenyl)quinoxalin-2-yl](phenyl)methanol] | 156.8 to 157.1 | >35.21 | 16.3 ± 3.42 | > 50 |  | 99.4 ± 3.31 | 27.1 ± 1.24 | > 200 |  | 58.71 ± 2.86 | 5.68 ± 0.81
13 | COc1ccc(-c2nc3cc(Cl)c(Cl)cc3nc2C(O)c2ccc(OC)cc2)cc1 (stereo not shown) [Compound 20b, [6,7-Dichloro-3-(4-methoxyphenyl)quinoxalin-2-yl](4-methoxyphenyl)methanol] | 144.1 to 144.5 |  | 2.75 ± 1.69 | 4.39 ± 1.52 |  | 95.5 ± 3.96 | 34.2 ± 4.97 |  | inactive |  | 
14 | O=C(c1ccccc1)c1nc2ccccc2nc1-c1ccccc1 [Compound 21a, Phenyl(3-phenylquinoxalin-2-yl)methanone] |  |  | 2.76 ± 1.55 | 7.98 ± 2.14 |  | 107 ± 2.3 | 79.5 ± 7.07 |  | inactive |  | 
15 | O=C(c1ccccc1)c1nc2cc(Cl)c(Cl)cc2nc1-c1ccccc1 [Compound 22a, (6,7-Dichloro-3-phenylquinoxalin-2-yl)(phenyl)methanone] | 154.3 to 156.8 |  | 12.7 ± 3.91 | 19.7 ± 4.17 |  | 109 ± 1.36 | 103 ± 2.67 |  |  |  | 
16 | COc1ccc(C(=O)c2nc3cc(Cl)c(Cl)cc3nc2-c2ccccc2)cc1 [Compound 22b, (6,7-Dichloro-3-phenylquinoxalin-2-yl)(4-methoxyphenyl)methanone] | 171.9 to 172.3 |  | 5.19 ± 2.78 | 24.7 ± 1.89 |  | 103 ± 8.3 | 92 ± 3.08 |  |  |  | 
17 | O=C(c1ccccc1)c1nc2ccccc2nc1-c1ccc(F)cc1 [Compound 23a, [3-(4-Fluorophenyl)quinoxalin-2-yl](phenyl)methanone] | 94.1 to 96.6 |  | 34.2 ± 5.12 | 40.8 ± 2.58 |  | 98.6 ± 5.68 | 87.6 ± 5.75 |  |  |  | 
18 | COc1ccc(C(=O)c2nc3ccccc3nc2-c2ccc(F)cc2)cc1 [Compound 23b, [3-(4-Fluorophenyl)quinoxalin-2-yl](4-methoxyphenyl)methanone] | 147.6 to 147.9 |  | 16.4 ± 3.11 | 33.6 ± 4.21 |  | 104 ± 1.85 | 103.3 ± 1.03 |  |  |  | 
19 | O=C(c1ccccc1)c1nc2cc(Cl)c(Cl)cc2nc1-c1ccc(F)cc1 [Compound 24a, (6,7-Dichloro-3-(4-fluorophenyl)quinoxalin-2-yl)(phenyl)methanone] | 184.3 to 186.4 |  | 2.54 ± 1.21 | 23.5 ± 3.71 |  | 106 ± 2.12 | 91.9 ± 2.83 |  |  |  | 
20 | COc1ccc(-c2nc3ccccc3nc2C(=O)c2ccccc2)cc1 [Compound 25a, [3-(4-Methoxyphenyl)quinoxalin-2-yl](phenyl)methanone] | 93.9 to 98.2 |  | 40.4 ± 2.22 | 47.5 ± 3.51 |  | 101 ± 2.39 | 100 ± 4.59 |  |  |  | 
21 | COc1ccc(C(=O)c2nc3ccccc3nc2-c2ccc(OC)cc2)cc1 [Compound 25b, (4-Methoxyphenyl)[3-(4-methoxyphenyl)quinoxalin-2-yl]methanone] | 144.5 to 146.2 |  | 41.5 ± 3.25 | 49.7 ± 4.38 |  | 107 ± 3.03 | 99.4 ± 2.14 |  |  |  | 
22 | COc1ccc(-c2nc3cc(Cl)c(Cl)cc3nc2C(=O)c2ccccc2)cc1 [Compound 26a, [6,7-Dichloro-3-(4-methoxyphenyl)quinoxalin-2-yl](phenyl)methanone] | 173.9 to 174.3 |  | 1.95 ± 0.82 | 14.5 ± 2.55 |  | 99.4 ± 6.5 | 35.3 ± 4.95 |  |  |  | 
23 | COc1ccc(C(=O)c2nc3cc(Cl)c(Cl)cc3nc2-c2ccc(OC)cc2)cc1 [Compound 26b, [6,7-Dichloro-3-(4-methoxyphenyl)quinoxalin-2-yl](4-methoxyphenyl)methanone] | 178.8 to 179 |  | 1.17 ± 0.41 | 19.3 ± 3.85 |  | 104 ± 4.22 | 99.1 ± 2.4 |  | inactive |  | 
24 | O=C(c1ccc(O)cc1)c1nc2ccccc2nc1-c1ccccc1 [Compound 27, (4-Hydroxyphenyl)(3-phenylquinoxalin-2-yl)methanone] | 196.5 to 199.3 |  | 44.9 ± 3.68 | 48.7 ± 3.48 |  | 102 ± 2.84 | 18.4 ± 2.33 |  |  |  | 
25 | O=C(c1ccc(O)cc1)c1nc2ccccc2nc1-c1ccc(O)cc1 [Compound 29, (4-Hydroxyphenyl)(3-(4-hydroxyphenyl)quinoxalin-2-yl)methanone] |  |  | 2.36 ± 1.11 | 4.25 ± 1.39 |  | 104 ± 2.91 | 51.9 ± 1.62 |  |  |  | 
